The text below walks through data of ChEMBL document CHEMBL2163233, “3-Oxoisoindoline-1-carboxamides: potent, state-dependent blockers of voltage-gated sodium channel Na(V)1.7 with efficacy in rat pain models” (J Med Chem, 2012).

SMILES strings stand for the structures. Values after ≈ are worked out from the molar mass of the structure shown. A value given as a limit tells only on which side of the number the result lay.

A short description of data set [1]: in vitro. As to conditions: human, microsomes, CLH.
A short description of data set [2]: in vitro. The following applies: rat, microsomes, CLH.

Take `O=C(NCc1ccc(OC(F)(F)F)cc1)C1c2ccccc2C(=O)N1CCC(F)(F)F` (stereo unspecified): the solubility (in general, the dissolved amount per volume that the medium holds) at 4 h in the data set “physchem” worked out at 11 µM (≈ 4.91 µg/mL). The intrinsic metabolic clearance (microsomal CLint) in the data set “in vitro [1]” and in “in vitro [2]” was less than 10 µL/min/mg in each case.

`O=C(NCc1cccc(Br)c1)C1c2ccccc2C(=O)N1CCc1ccccn1` (stereo unspecified) yielded a solubility at 4 h in “physchem” of 6 µM (≈ 2.7 µg/mL). Further, the intrinsic clearance (microsomal CLint) (commonly a measure of how fast metabolising enzymes remove a compound, apart from limits set by blood flow) was found to be 310 µL/min/mg in “in vitro [1]” and 47 µL/min/mg in the data set “in vitro [2]”.

`O=C(NCc1ccc(OC(F)(F)F)cc1)C1c2cccc(O)c2C(=O)N1CCc1ncc(F)cn1` (stereo unspecified) registered a solubility at 4 h in “physchem” of 2 µM (≈ 0.981 µg/mL). Further, the microsomal CLint in “in vitro [1]” came out at 42 µL/min/mg; in “in vitro [2]” it was 36 µL/min/mg.

Take `O=C(NCc1ccccc1Br)C1c2ccccc2C(=O)N1CCc1ccccn1` (stereo unspecified): the solubility at 4 h in “physchem” is 280 µM (≈ 126 µg/mL). Further, the microsomal CLint was 300 µL/min/mg in the data set “in vitro [1]” and 20 µL/min/mg in the data set “in vitro [2]”.

Take `O=C(NCc1ccc(OCC(F)(F)F)cc1)C1c2ccccc2C(=O)N1CCc1ccccn1` (stereo unspecified): the concentration in solution in the data set “physchem” (solubility at 4 h) came to 42 µM (≈ 19.7 µg/mL).

As to `O=C(NCc1ccc(OCC(F)(F)F)nc1)C1c2ccccc2C(=O)N1CCc1ccccn1` (stereo unspecified), the solubility at 4 h in “physchem” is 88 µM (≈ 41.4 µg/mL). In addition, the values for the microsomal CLint in the data set “in vitro [1]” and in “in vitro [2]” were 40 µL/min/mg and less than 10 µL/min/mg, respectively.

Regarding `O=C(NCc1cccc(OC(F)(F)F)c1)C1c2ccccc2C(=O)N1CCc1ccccn1` (stereo unspecified), the concentration in solution in the data set “physchem” (solubility at 4 h) was 19 µM (≈ 8.65 µg/mL). Besides, the microsomal CLint in “in vitro [1]” was determined as 370 µL/min/mg; in the data set “in vitro [2]”, 86 µL/min/mg.

With `O=C(NCc1ccc(OC(F)(F)F)cc1)C1c2ccccc2C(=O)N1CCOCC(F)(F)F` (stereo unspecified), the solubility at 4 h in “physchem” worked out at 3 µM (≈ 1.43 µg/mL). The results for the microsomal CLint in “in vitro [1]” and in the data set “in vitro [2]” were 44 µL/min/mg and less than 10 µL/min/mg, respectively.

For the compound `COc1cccc2c1C(C(=O)NCc1ccc(OC(F)(F)F)cc1)N(CCc1ccccn1)C2=O` (stereo unspecified), the solubility at 4 h in the data set “physchem” was 4 µM (≈ 1.94 µg/mL). Also, the microsomal CLint in “in vitro [1]” worked out at 97 µL/min/mg; in the data set “in vitro [2]” it was 37 µL/min/mg.

In the case of `O=C(NCc1ccc(OC(F)(F)F)cc1)C1c2ccccc2C(=O)N1CCc1cccnc1` (stereo unspecified), the solubility at 4 h in “physchem” worked out at 69 µM (≈ 31.4 µg/mL). In addition, the microsomal CLint in the data set “in vitro [1]” was 100 µL/min/mg; in “in vitro [2]”, 28 µL/min/mg.

As for `O=C(NCc1ccc(OC(F)(F)F)cc1)C1c2ccccc2C(=O)N1CCOc1ccccn1` (stereo unspecified), the solubility at 4 h in “physchem” is less than 1 µM. Also, the microsomal CLint worked out at 190 µL/min/mg in the data set “in vitro [1]” and 39 µL/min/mg in “in vitro [2]”.

`CC(C)(C)OC(=O)N1CCC(N2C(=O)c3ccccc3C2C(=O)NCc2ccc(OC(F)(F)F)cc2)CC1` (stereo unspecified): the concentration in solution in the data set “physchem” (solubility at 4 h) came to 7 µM (≈ 3.73 µg/mL). Moreover, the intrinsic metabolic clearance (microsomal CLint) in the data set “in vitro [1]” came to 170 µL/min/mg; in “in vitro [2]”, 89 µL/min/mg.

`O=C(NCc1ccc(OC(F)(F)F)cc1)C1c2c(F)cccc2C(=O)N1CCc1ccccn1` (stereo unspecified) registered a solubility at 4 h in the data set “physchem” of 17 µM (≈ 8.05 µg/mL). The results for the intrinsic metabolic clearance (microsomal CLint) in the data set “in vitro [1]” and in the data set “in vitro [2]” were 150 µL/min/mg and 10 µL/min/mg, respectively.

`O=C(NCc1ccc(OC(F)(F)F)cc1)C1c2ccccc2C(=O)N1CCC1CCOCC1` (stereo unspecified) displayed a solubility at 4 h in the data set “physchem” of 20 µM (≈ 9.25 µg/mL). Besides, the microsomal CLint in the data set “in vitro [1]” was 71 µL/min/mg; in the data set “in vitro [2]”, less than 10 µL/min/mg.

As for `CC(NC(=O)C1c2ccccc2C(=O)N1CCc1ccccn1)c1ccc(OCC(F)(F)F)cc1` (stereo unspecified), the solubility at 4 h in the data set “physchem” amounted to 34 µM (≈ 16.4 µg/mL). Also, the values for the microsomal CLint in “in vitro [1]” and in “in vitro [2]” were 204 µL/min/mg and 49 µL/min/mg, respectively.

On to `O=C(NCc1ccc(F)c(OC(F)(F)F)c1)C1c2ccccc2C(=O)N1CCc1ncc(F)cn1` (stereo unspecified), for which, in the data set “physchem”, the solubility at 4 h worked out at 27 µM (≈ 13.3 µg/mL). Moreover, the intrinsic clearance (microsomal CLint) was 220 µL/min/mg in “in vitro [1]” and 110 µL/min/mg in “in vitro [2]”.

Consider `O=C(NCc1ccc(OC(F)(F)F)cc1)C1c2ccccc2C(=O)N1CCCc1ccccn1` (stereo unspecified), for which the solubility at 4 h in “physchem” was 6 µM (≈ 2.82 µg/mL). Besides, the intrinsic clearance (microsomal CLint) in “in vitro [1]” is greater than 500 µL/min/mg; in “in vitro [2]”, 31 µL/min/mg.

In turn, `O=C(NCc1ccc(C(F)(F)F)cc1)C1c2ccccc2C(=O)N1CCc1ccccn1` (stereo unspecified) gave a solubility at 4 h in the data set “physchem” of 7 µM (≈ 3.08 µg/mL). For the same compound, the intrinsic clearance (microsomal CLint) in “in vitro [1]” came out at 180 µL/min/mg; in “in vitro [2]”, 58 µL/min/mg.

As for `COc1ccc(CNC(=O)C2c3ccccc3C(=O)N2CCc2ccccn2)cc1` (stereo unspecified), in the data set “physchem”, the concentration in solution (solubility at 4 h) was 360 µM (≈ 145 µg/mL).

As to `Cc1ccc(NC(=O)C2c3ccccc3C(=O)N2CCc2ccccn2)cc1C` (stereo unspecified), in “physchem”, the solubility at 4 h worked out at 34 µM (≈ 13.1 µg/mL).

For `CC1(C(=O)NCc2ccc(OC(F)(F)F)cc2)c2ccccc2C(=O)N1CCc1ccccn1` (racemic), the figures for the intrinsic metabolic clearance (microsomal CLint) in the data set “in vitro [1]” and in the data set “in vitro [2]” were greater than 500 µL/min/mg and 57 µL/min/mg, respectively.
